IC50 data for 71 molecules are collected here from US9199947B2, “Biaryl-propionic acid derivatives and their use as pharmaceuticals” (SANOFI, priority 2013, dated 2015).

Where two headings read alike, the source gives them in different places.

In this experiment the target is Recombinant human cathepsin A (Homo sapiens (Human), UniProt P10619). Briefly: Cathepsin A inhibitory activity (Bodipy FL-labeled bradykinin substrate, microfluidic capillary electrophoresis). It counts as biochemical. As to conditions: read-out: CATHA IC50. On the procedure:
Pharmacological Tests a) Cathepsin a Inhibitory Activity
Recombinant human cathepsin A (residues 29-480, with a C-terminal 10-His tag; R&D Systems, #1049-SE) was proteolytically activated with recombinant human cathepsin L (R&D Systems, #952-CY). Briefly, cathepsin A was incubated at 10 μg/ml with cathepsin L at 1 μg/ml in activation buffer (25 mM 2-(morpholin-4-yl)-ethanesulfonic acid (MES), pH 6.0, containing 5 mM dithiothreitol (DTT)) for 15 min at 37° C.
The activated cathepsin A was diluted in assay buffer (25 mM MES, pH 5.5, containing 5 mM DTT) and mixed with the test compound (dissolved in assay buffer containing (v/v) 3% DMSO) or, in the control experiments, with the vehicle in a multiple assay plate. After incubation for 15 min at room temperature, as substrate then bradykinin carrying an N-terminal® Bodipy FL (4,4-difluoro-5,7-dimethyl-4-bora-3a,4a-diaza-s-indacene-3-propionyl) label (JPT Peptide Technologies GmbH; dissolved in assay buffer) was added to the mixture. The final concentration of cathepsin A was 833 ng/ml and the final concentration of labeled bradykinin 2 μM. After incubation for 15 min at room temperature the reaction was stopped by the addition of stop buffer (130 mM 2-(4-(2-hydroxy-ethyl)-piperazin-1-yl)-ethanesulfonic acid, pH 7.4, containing (v/v) 0.013%° Triton X-100, 0.13% Coating Reagent 3 (Caliper Life Sciences), 6.5% DMSO and 20 μM ebelactone B (Sigma, #E0886)).
Uncleaved substrate and product were then separated by a microfluidic capillary electrophoresis on a LabChip® 3000 Drug Discovery System (12-Sipper-Chip; Caliper Life Sciences) and quantified by determination of the respective peak areas. Substrate turnover was calculated by dividing product peak area by the sum of substrate and product peak areas, and the enzyme activity and the inhibitory effect of the test compound thus quantified.

[1] abbreviates: Cathepsin A inhibitory activity.

Recombinant human cathepsin A, sequence (P10619 29-326): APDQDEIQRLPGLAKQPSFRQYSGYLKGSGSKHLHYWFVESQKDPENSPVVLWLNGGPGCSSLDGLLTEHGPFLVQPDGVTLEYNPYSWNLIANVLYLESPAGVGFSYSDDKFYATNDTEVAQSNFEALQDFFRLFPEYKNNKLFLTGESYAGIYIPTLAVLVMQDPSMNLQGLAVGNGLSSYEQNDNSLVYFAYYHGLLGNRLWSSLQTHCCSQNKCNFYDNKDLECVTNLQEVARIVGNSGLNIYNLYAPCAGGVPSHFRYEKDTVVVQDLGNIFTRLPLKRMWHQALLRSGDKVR
Recombinant human cathepsin A, sequence (P10619 327-480): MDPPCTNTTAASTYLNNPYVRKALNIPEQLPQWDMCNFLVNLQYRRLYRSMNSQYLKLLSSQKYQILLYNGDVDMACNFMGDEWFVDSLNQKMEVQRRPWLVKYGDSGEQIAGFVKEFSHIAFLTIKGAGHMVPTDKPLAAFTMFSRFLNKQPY

For `COc1ccc(-c2cccc(Cl)c2)cc1C(CC(=O)O)c1ncc(C)s1` (centres unmarked) [compound 81], the IC50 was determined as 3740 nM.
Still for that read-out and setting: next, `Cc1cnc(C(CC(=O)O)c2cc(Cl)cc(-c3cccc(OC(F)(F)F)c3)c2)s1` (centres unmarked) [compound 111]: 406 nM; `COc1cc(-c2cccc(C(CC(=O)O)c3nccs3)c2)ccc1O` (centres unmarked) [compound 29]: 2280 nM; `O=C(O)CC(c1cccc(-c2ccncc2F)c1)c1nccs1` (centres unmarked) [compound 47]: 24800 nM.
On the same count and under the same terms, then `COc1ccc(-c2cccc(Cl)c2F)cc1C(CC(=O)O)c1ncc(C)s1` (centres unmarked) [compound 61], with 954 nM; and `COc1ccc(-c2cc(Cl)cc(C(CC(=O)O)c3ncc(C)s3)c2)c(F)c1` (centres unmarked) [compound 113], with 563 nM; and `Cc1nnc(C(CC(=O)O)c2cccc(-c3ccncc3)c2)o1` (centres unmarked) [compound 16], with 23200 nM.
Still for that read-out and setting: then `COc1ccc(-c2cc(F)ccc2Cl)cc1C(CC(=O)O)c1ncc(C)s1` (centres unmarked) [compound 66], with 1250 nM.
Consider `Cc1cccc(-c2cccc(C(CC(=O)O)c3nccs3)c2)c1C` (centres unmarked) [compound 9], for which the IC50 was 2480 nM.
Regarding `COc1ccc(-c2cccc(C(CC(=O)O)c3ncc(C)s3)c2)c(F)c1` (centres unmarked) [compound 54], the IC50 amounted to 989 nM.
In the case of `COc1ccc(-c2cc(F)ccc2F)cc1C(CC(=O)O)c1ncc(C)s1` (centres unmarked) [compound 63], the IC50 worked out at 975 nM.
The same measure, in the same setting: then `COc1ccc(-c2cccc(Cl)c2C)cc1C(CC(=O)O)c1ncc(C)s1` (centres unmarked) [compound 67], with 1310 nM; and `COc1ccc(-c2cc(F)ccc2C)cc1C(CC(=O)O)c1ncc(C)s1` (centres unmarked) [compound 64], with 1200 nM; and `N#CCOc1cccc(-c2cccc(C(CC(=O)O)c3nccs3)c2)c1` (centres unmarked) [compound 27], with 1940 nM.
As to `O=C(O)CC(c1cc(F)cc(-c2cccc(F)c2F)c1)c1ncco1` (centres unmarked) [compound 129], the IC50 under setting [1] was found to be 1450 nM.
As to `Cc1ccc(F)c(-c2cc(F)cc(C(CC(=O)O)c3ncco3)c2)c1` (centres unmarked) [compound 123], the IC50 under setting [1] came to 903 nM.
As to `COc1cccc(-c2cccc(C(CC(=O)O)c3nccs3)c2)c1F` (centres unmarked) [compound 17], the IC50 came to 588 nM.
In the case of `COc1ccc(-c2ccc(F)cc2)cc1C(CC(=O)O)c1ncc(C)s1` (centres unmarked) [compound 84], the IC50 turned out to be 4390 nM.
On the same count and under the same terms, then `Cc1cccc(-c2cccc(C(CC(=O)O)c3nccs3)c2)c1Cl` (centres unmarked) [compound 4], with 797 nM.
For `O=C(O)CC(c1cccc(-c2ccc3c(c2)OCCO3)c1)c1nccs1` (centres unmarked) [compound 19], the IC50 was 987 nM.
As for `CC(=O)c1ccccc1-c1cc(Cl)cc(C(CC(=O)O)c2ncc(C)s2)c1` (centres unmarked) [compound 106], the IC50 turned out to be 250 nM.
The same measure, in the same setting: then `COc1ccc(-c2ccc(Cl)cc2)cc1C(CC(=O)O)c1ncc(C)s1` (centres unmarked) [compound 76], with 3200 nM; and `O=C(O)CC(c1cccc(-c2cccc(F)c2Cl)c1)c1nccs1` (centres unmarked) [compound 11], with 2720 nM.
Still for that read-out and setting: then `CC(C)COc1ccc(-c2cccc(C(CC(=O)O)c3nccs3)c2)cc1` (centres unmarked) [compound 36], with 2810 nM.
As to `Cc1cnc(C(CC(=O)O)c2cc(Cl)cc(-c3ccncc3F)c2)s1` (centres unmarked) [compound 117], under setting [1], the IC50 was found to be 1560 nM.
In the case of `NC(=O)c1ccccc1-c1cc(F)cc(C(CC(=O)O)c2ncco2)c1` (centres unmarked) [compound 134], the IC50 under setting [1] came out at 1770 nM.
`Cc1cnc(C(CC(=O)O)c2cc(F)cc(-c3ccccc3C#N)c2)s1` (centres unmarked) [compound 131]: the IC50 under setting [1] turned out to be 1690 nM.
As for `COc1ccc(-c2ccc(OC)c(C(CC(=O)O)c3ncc(C)s3)c2)c(F)c1` (centres unmarked) [compound 77], the IC50 came out at 3270 nM.
For `COc1ccc(-c2cccc(OC(F)(F)F)c2)cc1C(CC(=O)O)c1ncc(C)s1` (centres unmarked) [compound 96], the IC50 was 18100 nM.
Take `CCOc1cccc(-c2cccc(C(CC(=O)O)c3nccs3)c2)c1` (centres unmarked) [compound 24]: the IC50 amounted to 1500 nM.
`Cn1nccc1-c1cccc(C(CC(=O)O)c2nccs2)c1` (centres unmarked) [compound 42]: the IC50 is 15100 nM.
Still for that read-out and setting: then `Cc1cnc(C(CC(=O)O)c2cc(Cl)cc(-c3cccc(F)c3F)c2)s1` (centres unmarked) [compound 109], with 354 nM; and `Cc1cnc(C(CC(=O)O)c2cccc(-c3cncc(C(=O)N4CCOCC4)c3)c2)s1` (centres unmarked) [compound 59], with 13600 nM.
For `Cc1nnc(C(CC(=O)O)c2cccc(-c3ccccc3)c2)o1` (centres unmarked) [compound 167], the IC50 under setting [1] came out at 935 nM.
Take `Cc1cnc(C(CC(=O)O)c2cc(Cl)cc(-c3ccccc3F)c2)s1` (centres unmarked) [compound 107]: the IC50 was 328 nM.
For the molecule `Cc1cnc(C(CC(=O)O)c2cc(Cl)cc(-c3ccccc3OC(F)(F)F)c2)s1` (centres unmarked) [compound 104], the IC50 worked out at 221 nM.
Same read-out and setting: next, `Cc1nnc(C(CC(=O)O)c2cccc(-c3cccc(Cl)c3Cl)c2)o1` (centres unmarked) [compound 15]: 634 nM.
The same measure, in the same setting: then `O=C(O)CC(c1cccc(-c2ccncc2Cl)c1)c1nccs1` (centres unmarked) [compound 43], with 19400 nM; and `Cc1cc(-c2cccc(C(CC(=O)O)c3nccs3)c2)n(C)n1` (centres unmarked) [compound 40], with 9540 nM; and `Cn1nc(-c2cccc(C(CC(=O)O)c3nccs3)c2)c2ccccc21` (centres unmarked) [compound 18], with 769 nM.
For `Cc1nnc(C(CC(=O)O)c2cccc(-c3ccncc3)c2)o1` (centres unmarked) [compound 148], the IC50 under setting [1] was 20600 nM.
In the case of `COc1ccc(-c2cccc(F)c2F)cc1C(CC(=O)O)c1ncc(C)s1` (centres unmarked) [compound 69], the IC50 was 1770 nM.
Turning to `CCCOc1cccc(-c2cccc(C(CC(=O)O)c3nccs3)c2)c1` (centres unmarked) [compound 26], the IC50 is 1670 nM.
In the case of `O=C(O)CC(c1cccc(-c2ccc(OCC3CC3)cc2)c1)c1nccs1` (centres unmarked) [compound 30], the IC50 amounted to 2290 nM.
Still for that read-out and setting: next, `Nc1ccc(-c2cccc(C(CC(=O)O)c3nccs3)c2)c(F)n1` (centres unmarked) [compound 23]: 1390 nM; `COc1cccc(-c2cccc(C(CC(=O)O)c3nccs3)c2)c1` (centres unmarked) [compound 21]: 1180 nM; `O=C(O)CC(c1cccc(-c2ccc(Cl)c(OCc3ccccc3)c2)c1)c1nccs1` (centres unmarked) [compound 38]: 7870 nM.
In the case of `Cc1cnc(C(CC(=O)O)c2cc(Cl)cc(-c3ccccc3C#N)c2)s1` (centres unmarked) [compound 114], the IC50 worked out at 567 nM.
For `CC(=O)c1ccccc1-c1cc(F)cc(C(CC(=O)O)c2ncco2)c1` (centres unmarked) [compound 136], the IC50 under setting [1] is 2030 nM.
As for `CCCOc1ccc(F)c(-c2cccc(C(CC(=O)O)c3nccs3)c2)c1` (centres unmarked) [compound 20], the IC50 stood at 1110 nM.
With `COc1ccc(-c2cccc(F)c2Cl)cc1C(CC(=O)O)c1ncc(C)s1` (centres unmarked) [compound 82], the IC50 worked out at 4010 nM.
As for `COc1ccc(-c2ccc(C)cc2C)cc1C(CC(=O)O)c1ncc(C)s1` (centres unmarked) [compound 75], the IC50 was found to be 3090 nM.
As for `Cc1cnc(C(CC(=O)O)c2cc(F)cc(-c3ccncc3)c2)s1` (centres unmarked) [compound 139], under setting [1], the IC50 stood at 8650 nM.
For the molecule `COc1ccc(-c2ccc(OC)c(C(CC(=O)O)c3ncc(C)s3)c2)cc1` (centres unmarked) [compound 92], the IC50 worked out at 7810 nM.
For `Cc1cnc(C(CC(=O)O)c2cccc(-c3cc(Cl)ccc3F)c2)s1` (centres unmarked) [compound 50], the IC50 came to 228 nM.
The same measure, in the same setting: next, `COc1ccc(-c2ccc(F)cc2Cl)cc1C(CC(=O)O)c1ncc(C)s1` (centres unmarked) [compound 87]: 6360 nM.
With `Cc1ccc(-c2cc(F)cc(C(CC(=O)O)c3ncco3)c2)c(F)c1` (centres unmarked) [compound 125], the IC50 under setting [1] amounted to 1160 nM.
Same read-out and setting: next, `Cc1cnc(C(CC(=O)O)c2cc(F)cc(-c3cc(F)ccc3F)c2)s1` (centres unmarked) [compound 120]: 649 nM.
Consider `COc1ccc(-c2cccc(C(F)(F)F)c2)cc1C(CC(=O)O)c1ncc(C)s1` (centres unmarked) [compound 91], for which the IC50 came out at 7770 nM.
Same read-out and setting: next, `Cc1cnc(C(CC(=O)O)c2cc(Cl)cc(-c3cccnc3)c2)s1` (centres unmarked) [compound 115]: 1060 nM.
As for `Cc1nnc(C(CC(=O)O)c2cccc(-c3cccnc3)c2)o1` (centres unmarked) [compound 147], the IC50 under setting [1] turned out to be 6710 nM.
Turning to `COc1ccc(-c2ccc(F)cc2F)cc1C(CC(=O)O)c1ncc(C)s1` (centres unmarked) [compound 74], the IC50 was found to be 2650 nM.
Take `O=C(O)CC(c1cccc(-c2ccnc(F)c2)c1)c1nccs1` (centres unmarked) [compound 46]: the IC50 was 23600 nM.
Same read-out and setting: next, `Cc1cccc(-c2cccc(C(CC(=O)O)c3nccs3)c2)c1` (centres unmarked) [compound 3]: 784 nM.
Regarding `CC(=O)c1ccccc1-c1cc(F)cc(C(CC(=O)O)c2ncc(C)s2)c1` (centres unmarked) [compound 121], the IC50 under setting [1] is 707 nM.
As to `O=C(O)CC(c1cccc(-c2cccnc2Cl)c1)c1nccs1` (centres unmarked) [compound 41], the IC50 was determined as 11600 nM.
For `COc1ccc(-c2cccc(C(CC(=O)O)c3nccs3)c2)cn1` (centres unmarked) [compound 39], the IC50 was 8350 nM.
With `COc1ccc(-c2ccc(F)cc2C)cc1C(CC(=O)O)c1ncc(C)s1` (centres unmarked) [compound 80], the IC50 came out at 3730 nM.
Consider `COc1ccc(-c2ccc(C)cc2F)cc1C(CC(=O)O)c1ncc(C)s1` (centres unmarked) [compound 62], for which the half-inhibitory concentration (IC50) was found to be 970 nM.
For the molecule `COc1ccc(-c2cc(C)ccc2F)cc1C(CC(=O)O)c1ncc(C)s1` (centres unmarked) [compound 86], the IC50 was 5680 nM.
Take `O=C(O)CC(c1cccc(-c2cccc(OCc3ccccc3)c2)c1)c1nccs1` (centres unmarked) [compound 35]: the IC50 worked out at 2770 nM.

The IC50 is the point on the concentration scale where inhibition reaches its midpoint.
